{"source": "patent US12616753B2", "about": "“HSP70 inhibitors and methods of using same” (THE WISTAR INSTITUTE, priority 2020, dated 2026)", "tested_on": "MRPS14, NDUFA6, EGFR, AKT, mutant p53", "assay": "Western blot of HSP70 client proteins in human tumor cell lines", "type": "cell-based", "experimental": "Proteins were identified using False Discovery Rate (FDR) values less than 10% and p values less than 0.05. FIG. 3C: Three different melanoma cell lines (WM983B, WM4265, and 1205Lu) were treated with the indicated concentrations of AP-4-139B for 24 hours. Cell lysates were subjected to Western blot analysis, and immunoblotted for NDUFA6, MRPS14, and GAPDH (loading control). FIGS. 3D-3E: HT-29 (FIG. 3D) and LS411N (FIG. 3E) CRC cell lines were treated with the indicated concentrations of PET-16 or AP-4-139B for 48 hours. Cell lysates were subjected to Western blot analysis, and immunoblotted for EGFR, MRPS14, AKT, Cleaved Lamin A (CLA), Cleaved Caspase 3 (CC3), HSP70, HSP90 and GAPDH (loading control). FIG. 3F: HT-29 cells were treated with the indicated concentration of AP-4-139B, Gamitrinib (G-TPP), or VY-3-277 (negative control) for 48 hours. Cell lysates were subjected to Western blot analysis, and immunoblotted for HSP90, AKT, p53, and MRPS14.\nCell lysates were subjected to Western blot analysis, and immunoblotted for MRPS14, NDUFA6, BAK, COXIV, and GAPDH (loading control).\nAntibodies used were purchased from: p53 (Ab-6) (DO-1, Millipore Sigma), p53 (1C12) (2524S), Cleaved Caspase 3 (9661S), Cleaved Lamin A (2035S), HSP90 (4877S), EGFR (4267S), HMGB1 (6893S), HSP70 (4873S), AKT (9272S), and GAPDH (2218S) (Cell Signaling, Danvers, MA, USA), MRPS14 (ab151118) (Abcam, Cambridge, MA, USA), NDUFA6 (GTX65550) (GeneTex, Irvine, CA, USA), BAK (H-211, sc-7873; Santa Cruz Biotechnology, Inc., Dallas, TX, USA), and HSP70 (C92F3A-5) (Enzo Life Sciences, Farmingdale, NY, USA). 17-AAG (Item No. 11039) and Metformin (Item No. 13118) were purchased from Cayman Chemical (Ann Arbor, MI, USA). Gamitrinib (G-TPP, HY-102007A) was purchased from MedChemExpress (Monmouth Junction, NJ, USA). All HSP70 inhibitors used were generated and confirmed by NMR. PLX-4720 was purchased from Chemietek (Catalog No. CT-P4720; Indianapolis, IN, USA). For in vitro studies, AP-4-139B was dissolved in DMSO. […]", "data": [{"compound": "c1ccc(-c2cn3nc(CCCCCC[P+](c4ccccc4)(c4ccccc4)c4ccccc4)sc3n2)cc1", "note": "[AP-4-139B, Triphenyl(6-(6-phenylimidazo[2,1-b][1,3,4]thiadiazol-2-yl)hexyl)phosphonium bromide]", "values": [{"measurement": "level of HSP70/HSP90 client proteins EGFR, AKT, mutant p53", "setting": "HT-29 and LS411N, 48 hours", "result": "decreased"}, {"measurement": "level of BAK and CoxIV and other mitochondrial proteins", "setting": "colorectal cancer cell lines, IC50, 24 hours", "result": "unaffected"}, {"measurement": "level of MRPS14 and NDUFA6", "setting": "several tumor cell lines", "result": "significantly decreased level of MRPS14 and NDUFA6"}]}]}
